How the values were obtained:
complement system = experiment: Complement activation assay (CH50)
human erythrocytes = experiment: Erythrocyte lysis assay; type: cell-based; conditions: 37° C., 1 h, citrate pH 5 versus HBS, FIG. 5
Method: The assay serves the examination of the ability of peptides to lyse natural membranes in a pH-dependent manner.
The erythrocytes used in this assay were obtained as follows: 10 ml of fresh blood were taken from volunteers and diluted immediately into 10 ml of Alsever's solution (Whaley 1985; Plank et al., 1996). Aliquots of 3 ml each were washed 3 times with the corresponding buffer (40 ml each of citrate or HBS; after addition of buffer, shaking, centrifugation at 2500×g and discarding of the supernatant). The concentration of the erythrocytes was determined with an “extinction coefficient” of 2.394×10^−8 ml/cells at 541 nm. For deriving the extinction coefficient, the cell count in an aliquot was determined using a Neubauer chamber followed by measuring the absorbance of this solution at 541 nm upon addition of 1 μl 1% Triton X-100.
Aliquots of INF7 and copolymer-coupled INF7 (P3INF7), respectively, were provided in column 1 of a 96-well plate in 150 μl 10 mM sodium citrate pH 5/150 mM NaCl and in HBS buffer, respectively (usually corresponding to […] peptide). […] Then, the plates were centrifuged at 2500×g, 150 μl each of the supernatant was transferred into a flat bottom 96-well plate and released hemoglobin was determined at 410 nm using an ELISA plate reader. […] 0% lysis was determined from untreated samples in column 12.

## GLFEAIEGFIENGWEGMIDGWYGC [INF7]
Complement system; FIG. 4B
  complement activation when incorporated in a polylysine-DNA complex: this complement activation disappears
Complement system; substance itself incubated with human serum, FIG. 4
  complement activation (CH50 as percentage of CH50max): weak activator of complement
Human erythrocytes
  erythrocyte lysis activity: strong pH-dependent activity
